Tested on: MCH receptors
Experiment: MCH receptor activity class (method not given)
Conditions: class by percent of control at 10^-7 M or IC50

Row | Structure (SMILES) | class
1 | C[C@H](C(=O)N[C@H]1CC[C@@H](Nc2nccc(N(C)C)n2)CC1)c1cccc(C(=O)c2ccccc2)c1 [compound 878, (2S)-2-(3-benzoylphenyl)-N-(cis-4-{[4-(dimethylamino)pyrimidin-2-yl]amino}cyclohexyl)propanamide] | 2 (Class 2: The value of percent of control at 10^−7 M was from 40% to 60% or the value of IC′50 was from 50 nM to 200 nM.)
2 | C[C@@H](c1ccccc1)N(C(=O)c1ccccc1C(=O)N[C@H]1CC[C@@H](Nc2nccc(N(C)C)n2)CC1)[C@@H](C)c1ccccc1 [compound 879, N′-(cis-4-{[4-(dimethylamino)pyrimidin-2-yl]amino}cyclohexyl)-N,N-bis[(1S)-1-phenylethyl]phthalamide] | 1 (Class 1: The value of percent of control at 10^−7 M was less than 40% or the value of IC50 was less than 50 nM.)
3 | C[C@H](C(=O)N[C@H]1CC[C@@H](Nc2nccc(N(C)C)n2)CC1)c1ccc(-c2ccccc2)c(F)c1 [compound 880] | 3 (Class 3 The value of percent of control at 10^−7 M was more than 60% or the value of IC50 was more than 200 nM.)
4 | CN(C)c1ccnc(N[C@H]2CC[C@@H](NC(=O)CCC(=O)c3cccs3)CC2)n1 [compound 885] | 3 (Class 3 The value of percent of control at 10^−7 M was more than 60% or the value of IC50 was more than 200 nM.)
5 | CN(C)c1ccnc(N[C@H]2CC[C@@H](NC(=O)CCCc3cccs3)CC2)n1 [compound 886] | 3 (Class 3 The value of percent of control at 10^−7 M was more than 60% or the value of IC50 was more than 200 nM.)
6 | CN(C)c1ccnc(N[C@H]2CC[C@@H](NC(=O)Cc3c[nH]c4ccc(OCc5ccccc5)cc34)CC2)n1 [compound 887] | 3 (Class 3 The value of percent of control at 10^−7 M was more than 60% or the value of IC50 was more than 200 nM.)
7 | CN(C)c1ccnc(N[C@H]2CC[C@@H](NC(=O)c3ccccc3C(=O)c3cccc4ccccc34)CC2)n1 [compound 888] | 3 (Class 3 The value of percent of control at 10^−7 M was more than 60% or the value of IC50 was more than 200 nM.)
8 | COc1ccc(C(=O)N[C@H]2CC[C@@H](Nc3nccc(N(C)C)n3)CC2)cc1OCc1ccccc1 [compound 889, 3-(benzyloxy)-N-(cis-4-{[4-(dimethylamino)pyrimidin-2-yl]amino}cyclohexyl)-4-methoxybenzamide] | 1 (Class 1: The value of percent of control at 10^−7 M was less than 40% or the value of IC50 was less than 50 nM.)
9 | Cc1c(C(=O)N[C@H]2CC[C@@H](Nc3nccc(N(C)C)n3)CC2)cc(-c2ccccc2)n1-c1ccccc1 [compound 890, N-(cis-4-{[4-(dimethylamino)pyrimidin-2-yl]amino}cyclohexyl)-2-methyl-1,5-diphenyl-1H-pyrrole-3-carboxamide] | 1 (Class 1: The value of percent of control at 10^−7 M was less than 40% or the value of IC50 was less than 50 nM.)
10 | Cc1c(C(=O)N[C@H]2CC[C@@H](Nc3nccc(N(C)C)n3)CC2)cc(-c2ccccc2)n1CCSCc1c(F)cccc1Cl [compound 891] | 1 (Class 1: The value of percent of control at 10^−7 M was less than 40% or the value of IC50 was less than 50 nM.)
11 | CN(C)c1ccnc(N[C@H]2CC[C@@H](NC(=O)c3c4ccccc4cc4ccccc34)CC2)n1 [compound 892] | 3 (Class 3 The value of percent of control at 10^−7 M was more than 60% or the value of IC50 was more than 200 nM.)
12 | CN(C)c1ccnc(N[C@H]2CC[C@@H](NC(=O)c3ccccc3Oc3ccccc3)CC2)n1 [compound 893, N-(cis-4-{[4-(dimethylamino)pyrimidin-2-yl]amino}cyclohexyl)-2-phenoxybenzamide] | 2 (Class 2: The value of percent of control at 10^−7 M was from 40% to 60% or the value of IC′50 was from 50 nM to 200 nM.)
13 | CN(C)c1ccnc(N[C@H]2CC[C@@H](NC(=O)c3ccccc3-c3ccccc3)CC2)n1 [compound 894] | 3 (Class 3 The value of percent of control at 10^−7 M was more than 60% or the value of IC50 was more than 200 nM.)
14 | CN(C)c1ccnc(N[C@H]2CC[C@@H](NC(=O)CC(c3ccccc3)c3ccccc3)CC2)n1 [compound 895] | 3 (Class 3 The value of percent of control at 10^−7 M was more than 60% or the value of IC50 was more than 200 nM.)
15 | CN(C)c1ccnc(N[C@H]2CC[C@@H](NC(=O)c3cc(-c4ccccc4)nc4ccccc34)CC2)n1 [compound 896, N-(cis-4-{[4-(dimethylamino)pyrimidin-2-yl]amino}cyclohexyl)-2-phenylquinoline-4-carboxamide] | 2 (Class 2: The value of percent of control at 10^−7 M was from 40% to 60% or the value of IC′50 was from 50 nM to 200 nM.)
16 | C[C@H](NC(=O)c1ccccc1C(=O)N[C@H]1CC[C@@H](Nc2nccc(N(C)C)n2)CC1)c1ccccc1 [compound 897] | 3 (Class 3 The value of percent of control at 10^−7 M was more than 60% or the value of IC50 was more than 200 nM.)

Row | Structure (SMILES) | class
17 | Cc1ccc(C(=O)c2ccccc2C(=O)N[C@H]2CC[C@@H](Nc3nccc(N(C)C)n3)CC2)cc1 [compound 898] | 3 (Class 3 The value of percent of control at 10^−7 M was more than 60% or the value of IC50 was more than 200 nM.)
18 | CN(C)c1ccnc(N[C@H]2CC[C@@H](NC(=O)c3ccccc3COc3ccccc3)CC2)n1 [compound 899] | 3 (Class 3 The value of percent of control at 10^−7 M was more than 60% or the value of IC50 was more than 200 nM.)
19 | CN(C)c1ccnc(N[C@H]2CC[C@@H](NC(=O)Cc3sc(-c4ccccc4)nc3-c3ccc(Cl)cc3)CC2)n1 [compound 900, 2-[4-(4-chlorophenyl)-2-phenyl-1,3-thiazol-5-yl]-N-(cis-4-{[4-(dimethylamino)pyrimidin-2-yl]amino}cyclohexyl)acetamide] | 1 (Class 1: The value of percent of control at 10^−7 M was less than 40% or the value of IC50 was less than 50 nM.)
20 | Cc1ccc(S(=O)(=O)n2ccc(C(=O)N[C@H]3CC[C@@H](Nc4nccc(N(C)C)n4)CC3)c2)cc1 [compound 901, N-(cis-4-{[4-(dimethylamino)pyrimidin-2-yl]amino}cyclohexyl)-1-[(4-methylphenyl)sulfonyl]-1H-pyrrole-3-carboxamide] | 2 (Class 2: The value of percent of control at 10^−7 M was from 40% to 60% or the value of IC′50 was from 50 nM to 200 nM.)
21 | CN(C)c1ccnc(N[C@H]2CC[C@@H](NC(=O)c3ccc(-c4cccc([N+](=O)[O-])c4)o3)CC2)n1 [compound 902, N-(cis-4-{[4-(dimethylamino)pyrimidin-2-yl]amino}cyclohexyl)-5-(3-nitrophenyl)-2-furamide] | 2 (Class 2: The value of percent of control at 10^−7 M was from 40% to 60% or the value of IC′50 was from 50 nM to 200 nM.)
22 | CN(C)c1ccnc(N[C@H]2CC[C@@H](NC(=O)c3scc(S(C)(=O)=O)c3Cl)CC2)n1 [compound 903] | 3 (Class 3 The value of percent of control at 10^−7 M was more than 60% or the value of IC50 was more than 200 nM.)
23 | CSc1sc(C(=O)N[C@H]2CC[C@@H](Nc3nccc(N(C)C)n3)CC2)c(Cl)c1S(=O)(=O)C(C)C [compound 904, 3-chloro-N-(cis-4-{[4-(dimethylamino)pyrimidin-2-yl]amino}cyclohexyl)-4-(isopropylsulfonyl)-5-(methylthio)thiophene-2-carboxamide] | 2 (Class 2: The value of percent of control at 10^−7 M was from 40% to 60% or the value of IC′50 was from 50 nM to 200 nM.)
24 | CSc1sc(C(=O)N[C@H]2CC[C@@H](Nc3nccc(N(C)C)n3)CC2)c(I)c1S(=O)(=O)C(C)C [compound 905] | 2 (Class 2: The value of percent of control at 10^−7 M was from 40% to 60% or the value of IC′50 was from 50 nM to 200 nM.)
25 | CN(C)c1ccnc(N[C@H]2CC[C@@H](NC(=O)c3csc([N+](=O)[O-])c3)CC2)n1 [compound 906, N-(cis-4-{[4-(dimethylamino)pyrimidin-2-yl]amino}cyclohexyl)-5-nitrothiophene-3-carboxamide] | 1 (Class 1: The value of percent of control at 10^−7 M was less than 40% or the value of IC50 was less than 50 nM.)
26 | CN(C)c1ccnc(N[C@H]2CC[C@@H](NC(=O)c3cc([N+](=O)[O-])cn3C)CC2)n1 [compound 907, N-(cis-4-{[4-(dimethylamino)pyrimidin-2-yl]amino}cyclohexyl)-1-methyl-4-nitro-1H-pyrrole-2-carboxamide] | 1 (Class 1: The value of percent of control at 10^−7 M was less than 40% or the value of IC50 was less than 50 nM.)
27 | CN(C)c1ccnc(N[C@H]2CC[C@@H](NC(=O)c3cn(S(=O)(=O)c4ccccc4)c4ccccc34)CC2)n1 [compound 908] | 3 (Class 3 The value of percent of control at 10^−7 M was more than 60% or the value of IC50 was more than 200 nM.)
28 | CN(C)c1ccnc(N[C@H]2CC[C@@H](NC(=O)c3ccc([N+](=O)[O-])cc3)CC2)n1 [compound 909, N-(cis-4-{[4-(dimethylamino)pyrimidin-2-yl]amino}cyclohexyl)-4-nitrobenzamide] | 2 (Class 2: The value of percent of control at 10^−7 M was from 40% to 60% or the value of IC′50 was from 50 nM to 200 nM.)
29 | COc1cc([N+](=O)[O-])ccc1C(=O)N[C@H]1CC[C@@H](Nc2nccc(N(C)C)n2)CC1 [compound 910] | 3 (Class 3 The value of percent of control at 10^−7 M was more than 60% or the value of IC50 was more than 200 nM.)
30 | CN(C)c1ccnc(N[C@H]2CC[C@@H](NC(=O)c3ccc(C(F)(F)F)c(F)c3)CC2)n1 [compound 911] | 3 (Class 3 The value of percent of control at 10^−7 M was more than 60% or the value of IC50 was more than 200 nM.)
31 | CN(C)c1ccnc(N[C@H]2CC[C@@H](NC(=O)c3ccc([N+](=O)[O-])cc3F)CC2)n1 [compound 912] | 3 (Class 3 The value of percent of control at 10^−7 M was more than 60% or the value of IC50 was more than 200 nM.)
32 | Cc1cc(C(=O)N[C@H]2CC[C@@H](Nc3nccc(N(C)C)n3)CC2)cc(C)c1[N+](=O)[O-] [compound 913, N-(cis-4-{[4-(dimethylamino)pyrimidin-2-yl]amino}cyclohexyl)-3,5-dimethyl-4-nitrobenzamide] | 2 (Class 2: The value of percent of control at 10^−7 M was from 40% to 60% or the value of IC′50 was from 50 nM to 200 nM.)

Source: US20050197350A1, “Novel quinoline, tetrahydroquinazoline, and pyrimidine derivatives and methods of treatment related to the use thereof” (TAISHO PHARMACEUTICAL CO., LTD., priority 2003, published 2005)
